# From US6228886A, “Nutritional formulations containing water-miscible lipid derivatives as antibacterial agents” (Abbott Laboratories, priority 2000, dated 2001)
# Columns and labels:
# [1] = system: RSV; test: In vivo prevention of RSV infection in cotton rats; conditions: 1000 mg/L Carrageenan in M. Similac®
# Description: Cotton rats have been used as an RSV research animal model for about 20 years. The cotton rat has a similar pathological change in the lung to that observed in human infants when infected by RSV (Prince et al., 1978). […] It has also been observed that the intravenously-administered RSV-IgG has to reach a titer of ≥1:100 concentration to show the preventive effect (Prince et al., 1985). The same serum concentration of RSV-IgG in human infants is protective (Groothuis et al., 1993, 1995). Due to these similarities, the FDA has recommended the cotton rat as an appropriate model for RSV studies.
# To have a repeatable RSV nasal and lung infection, a high RSV dose (10^4 pfu/animal) was intra-nasally inoculated to all animals. The inoculum (100 μl) consisted of 50 μl of RSV stock solution and 50 μl of test product. […] In addition, some studies were performed in an infant formula in which the intact protein was replaced with a casein hydrolysate (Alimentum®). All animals consumed the regular rodent chow diet throughout the experimental period. Four days after RSV challenge, all animals were sacrificed. Their lung and nasal tissue were isolated for determination of RSV titers. As a positive control, a 5% RSV-IgG was always used. […]
# [2] = system: RSV; conditions: carrageenan removed from the formulation; cited from earlier work
substance,measurement,setting,value
Carrageenan,RSV titer in Lung,[1],3.06 ± 0.16 Log10 PFU/g tissue
same,RSV titer in Nose,[1],3.78 ± 0.47 Log10 PFU/g tissue
same,"anti-RSV activity, previously found",[2],anti-RSV activity
